Patent publication US20130281506A1, “COMBINATION OF A NON-STEROIDAL ANTI-INFLAMMATORY DRUG WITH AN ANTI-HISTAMINIC DRUG INTENDED FOR OPHTHALMIC USE” (ALLERGAN, INC., priority 2012, published 2013)
Structures can show the parent of a compound that is named as a salt.

How the values were obtained:
[1] = test system: seasonal allergic conjunctivitis; experiment: Randomized, multi-centric, open label clinical study: efficacy on signs and symptoms (itching, hyperemia, chemosis, mucous discharge); format: in vivo, human; conditions: for mean chemosis score / mean cilliary hyperemia score / mean conjunctival hyperemia score / mean episcleral hyperemia score / mean itching score: score 0-4
Excerpt: A randomized, multi-centric geographically, open label study to compare the safety and efficacy of the combination of olopatadine hydrochloride 0.1% and ketorolac tromethamine 0.4% w/v ophthalmic solution with olopatadine hydrochloride 0.1% w/v used twice daily for three weeks in adult patients with seasonal allergic conjunctivitis, was completed. The primary objective of this randomized, multi-centric geographically diverse study was to compare the safety and efficacy of the combination of olopatadine and ketorolac with olopatadine in seasonal allergic conjunctivitis. A combination of olopatadine hydrochloride 0.1% w/v and ketorolac tromethamine 0.4% w/v was compared with olopatadine hydrochloride 0.1% w/v alone in the treatment of patients with seasonal allergic conjunctivitis. The test drug was the combination of olopatadine hydrochloride with ketorolac tromethamine compared to olopatadine hydrochloride 0.1% w/v, as three commercially available brands on the market: Winolap®, Opat® and Olo®. These three commercially available brands, as the comparator drug, were provided to the investigators. Any of the three brands of the comparator drug were prescribed by the investigator to the patients per their choice of availability and cost. The patients administered one drop twice daily in each eye for twenty-one days during three weeks. The patients received study medications as well as comparator drug for the entire period. There were five scheduled visits, with screening periods of thirty days and a treatment period of twenty-one days as per protocol. At the end of each visit physicians also rated tolerance and the patient rated acceptability. The efficacy parameters like itching, hyperemia (cilliary, conjunctival, episcleral), chemosis and mucus discharge were compared between groups and scored. The efficacy of the medications was evaluated by comparing the reduction in efficacy parameters, signs and symptoms of allergic conjunctivitis between the treatment groups, based on the twenty-one day period. The efficacy of the study medications was evaluated by comparing the reduction in signs and symptoms of allergic conjunctivitis between the treatment groups. Reduction in the signs and symptoms of allergic conjunctivitis was based on evaluation of efficacy parameters till the end of twenty-one days. For the improvement of allergic conjunctivitis, symptoms like itching, hyperemia, chemosis and mucous discharge were used. The symptoms of allergic conjunctivitis like itching, hyperemia and chemosis were scored as 0, 1, 2, 3 and 4 and mucous discharge was graded as absent or present. [table] Interpretation: •Minimum score: 0; •Maximum score: 4; the higher the score the more severe will be the symptoms of allergic conjunctivitis. In the report, each symptom is graded based on the severity. Efficacy evaluation has been done for first 100 completed cases. The efficacy parameters like itching, hyperemia (cilliary, conjunctival, episcleral), chemosis and mucus discharge were compared between groups.

[2] = test system: adult patients with seasonal allergic conjunctivitis; experiment: Same clinical study: safety, tolerability and acceptability; format: in vivo, human; conditions: mild transient, no treatment required; observed immediately after instillation of eye drop
Excerpt: The patients administered one drop twice daily in each eye for twenty-one days during three weeks. The patients received study medications as well as comparator drug for the entire period. There were five scheduled visits, with screening periods of thirty days and a treatment period of twenty-one days as per protocol. At the end of each visit physicians also rated tolerance and the patient rated acceptability.
At the end of the each visit physicians rated tolerance as Excellent (No adverse drug reactions), Good (Mild adverse reaction not requiring other treatment or necessitating drug withdrawal), Fair (Adverse reactions requiring treatment without hospitalization or necessitating drug withdrawal and Poor (Severe or serious reaction requiring hospitalization and withdrawal of drug) and the patient rated acceptability as Good (No untoward incidence), Fair (Mild adverse reaction not interfering day to day activities) and Poor (Adverse reactions affecting regular day to day activities).
The safety of the combination of olopatadine-ketorolac was compared with olopatadin. The safety assessment parameters included the number of patients having adverse events, the types of adverse events, and the number of unexpected, severe or serious adverse events in the two arms.

[3] = test system: seasonal allergic conjunctivitis and rhinoconjunctivitis; conditions: fourth week of treatment; p=0.03; cited from earlier work
[4] = visit 3, no statistically significant difference

CN(C)CC/C=C1/c2ccccc2COc2ccc(CC(=O)O)cc21 [olopatadine, olopatadine hydrochloride]
mean chemosis score ([1]; baseline): 1.5±0.99 | mean cilliary hyperemia score ([1]; baseline): 0.94±0.91 | mean conjunctival hyperemia score ([1]; baseline): 2.28±0.83 | mean episcleral hyperemia score ([1]; baseline): 0.84±0.79 | mean itching score ([1]; baseline, one drop twice daily in each eye): 3±0.67 | complaints of mucus discharge ([1]; final scheduled visit): all the enrolled patients were free from the complaints of mucus discharge | mean chemosis score ([1]; visit 2): 1.46±0.95 | mean cilliary hyperemia score ([1]; visit 2): 0.94±0.91 | mean conjunctival hyperemia score ([1]; visit 2): 2.2±0.84 | mean episcleral hyperemia score ([1]; visit 2): 0.84±0.79 | mean itching score ([1]; visit 3 (first week), p=0.012 between groups): 2±0.60 | mean cilliary hyperemia score ([1]; visit 3): 0.62±0.66 | mean chemosis score [1, 4]: 0.92±0.72 | mean conjunctival hyperemia score [1, 4]: 1.38±0.86 | mean episcleral hyperemia score ([1]; visit 3, p=0.43 printed): 0.62±0.63 | mean itching score ([1]; visit 4 (second week), p=0.009 between groups): 1.28±0.67 | mean conjunctival hyperemia score ([1]; visit 4 (second week), p=0.02 between groups): 0.8±0.60 | mean chemosis score ([1]; visit 4 (second week), p=0.029 between groups): 0.54±0.57 | mean episcleral hyperemia score ([1]; visit 4): 0.36±0.56 | mean cilliary hyperemia score ([1]; visit 4, p=0.06 between groups): 0.28±0.49 | mean chemosis score ([1]; visit 5 (third week), p=0.00004 between groups): 0.3±0.52 | mean itching score ([1]; visit 5 (third week), p=0.00009 between groups): 0.78±0.58 | mean conjunctival hyperemia score ([1]; visit 5 (third week), p=0.0003 between groups): 0.5±0.54 | mean episcleral hyperemia score ([1]; visit 5): 0.18±0.38 | mean cilliary hyperemia score ([1]; visit 5, p=0.52 between groups): 0.08±0.34 | number of patients experiencing an adverse event [2]: three | chemosis compared to placebo [3]: significant decrease
